In patent US10464957B2, “Oxidized lipids and methods of use thereof” (Vascular Biogenics Ltd., priority 2014, dated 2019):

Experiments:
[1] = test system: LPS (TLR4)-induced signaling in human monocytes (primary CD14+); assay: LPS (TLR4)-induced signaling, western blot; assay type: cell-based; details: for formation of p-IKK, p-ERK and p-p38 induced by LPS: 20 min pretreatment, 15 min activation with 100 ng/ml LPS
Description: Venous blood samples were obtained from healthy male donors in compliance with the Institutional Review Board at the Sheba Medical Center, Ramat Gan, Israel. PBMCs were isolated on Ficoll-Paque PLUS (GE Healthcare, Uppsala, Sweden) using 50 ml Leucosep tubes (Greiner Bio-One, Frickenhausen, Germany). Cells were washed in PBS (Kibbutz Beit Haemek, Israel) and incubated at 4° C. for 15 minutes in a buffer containing PBS and 0.5% bovine serum albumin (BSA) with human CD14 microbeads (Miltenyi Biotec, Bergisch Gladbach, Germany).
(§1) Cells (10^6/ml) were pretreated for 20 min with VB-201 (1-hexadecyl-2-(4′-carboxy)butyl-glycero-3-phosphocholine or 1-hexadecyl-2-(4′-carboxybutyl)-glycerol-3-phosphocholine) or VB-701 at the doses indicated in FIG. 2, or with solvent (Sol), followed by 15 min activation with 100 ng/ml lipopolysaccharide (LPS) or were untreated (Unt). Cells were washed and resuspended in lysis buffer containing 1:100 dithiothreitol (DTT), phosphatase and protease inhibitors (Thermo Scientific). Samples were loaded onto a precast Criterion TGX gel (Bio-Rad, Hemel Hempstead, UK) and transferred onto nitrocellulose membrane. Blots were blocked with 5% milk or BSA in Tris buffered saline and Tween 20 (TBST) for 1 h, followed by incubation with primary and secondary antibodies. Membranes were developed using an ECL kit (Thermo Scientific). The following antibodies were used for immunoblotting:
(§2) Primary antibodies: p-p38 (Cat. No. 4511; 1:1000) and p-IKK (Cat. No. 2697; 1:1000) were from Cell Signaling Technology (Danvers, Mass., USA). p-ERK1/2 (Cat. No. M8159; 1:10000) was purchased from Sigma (Israel). αTubulin (Tub) served as a loading control.
(§3) Secondary antibodies: HRP donkey anti-rabbit (1:5000) and HRP goat anti-mouse (1:3000) were from Jackson ImmunoResearch (West Grove, Pa., USA). HRP donkey anti-goat (1:5000) was from Santa Cruz Biotechnology.
as §1, with “VB-201” for “VB-201 (1-hexadecyl-2-(4′-carboxy)butyl-glycero-3-phosphocholine”, “VB-703” for “1-hexadecyl-2-(4′-carboxybutyl)-glycerol-3-phosphocholine) or VB-701 at the doses indicated in FIG. 2, or with solvent (Sol),”, “LPS.” for “lipopolysaccharide (LPS) or were untreated (Unt).”
as §2, with “Heat shock protein (HSP) 90 (Cat. No. 13119; 1:500) was from Santa Cruz Biotechnology (Santa Cruz, Calif., USA).” for “αTubulin (Tub) served as a loading control.”

[2] = test system: LPS (TLR4) stimulated Mo-Derived DCs; assay: Cytokine secretion ELISA, LPS (TLR4)-stimulated monocyte-derived dendritic cells; assay type: cell-based, human; details: 1 hour pretreatment, 24 hours 100 ng/ml LPS
Description: To generate monocyte-derived DC (Mo-DCs), CD14+ monocytes were counted, washed and seeded (10^6/ml) in medium containing RPMI-1640, L-glutamine, β-mercaptoethanol, 10% fetal calf serum (FCS), sodium pyruvate, non-essential amino acids, 0.01 M HEPES, antibiotics (penicillin, streptomycin), 50 ng/ml human granulocyte-macrophage colony-stimulating factor (GMCSF) and 20 ng/ml human IL-4 (both from PeproTech Asia, Israel). Medium was replaced every 2-3 days. Mo-DCs were collected 5-6 days post-culture, counted and seeded (10^6/ml). Cells were pretreated for 1 hour with VB-201 or VB-703, followed by 24 hours activation with 100 ng/ml LPS from Escherichia coli strain 055:B5 (Sigma, Israel) to induce cytokine production. IL-6 concentration (FIG. 14) and IL-12/23p40 (FIG. 15) concentration in supernatant were measured by ELISA (R&D systems, Cat. No. DY1240 and Cat. No. DY206, […]). Cells activated with solvent (0.5% ethanol in PBS) were used as a control.

[3] = target: T1, TLR4 complex (Homo sapiens, UniProt O00206+Q9Y6Y9); assay: LPS binding inhibition assay (biotin-LPS, FACS)
T1 construct: endogenous in cells; probably the human primary monocytes of b454
T1 sequence (O00206 24-839): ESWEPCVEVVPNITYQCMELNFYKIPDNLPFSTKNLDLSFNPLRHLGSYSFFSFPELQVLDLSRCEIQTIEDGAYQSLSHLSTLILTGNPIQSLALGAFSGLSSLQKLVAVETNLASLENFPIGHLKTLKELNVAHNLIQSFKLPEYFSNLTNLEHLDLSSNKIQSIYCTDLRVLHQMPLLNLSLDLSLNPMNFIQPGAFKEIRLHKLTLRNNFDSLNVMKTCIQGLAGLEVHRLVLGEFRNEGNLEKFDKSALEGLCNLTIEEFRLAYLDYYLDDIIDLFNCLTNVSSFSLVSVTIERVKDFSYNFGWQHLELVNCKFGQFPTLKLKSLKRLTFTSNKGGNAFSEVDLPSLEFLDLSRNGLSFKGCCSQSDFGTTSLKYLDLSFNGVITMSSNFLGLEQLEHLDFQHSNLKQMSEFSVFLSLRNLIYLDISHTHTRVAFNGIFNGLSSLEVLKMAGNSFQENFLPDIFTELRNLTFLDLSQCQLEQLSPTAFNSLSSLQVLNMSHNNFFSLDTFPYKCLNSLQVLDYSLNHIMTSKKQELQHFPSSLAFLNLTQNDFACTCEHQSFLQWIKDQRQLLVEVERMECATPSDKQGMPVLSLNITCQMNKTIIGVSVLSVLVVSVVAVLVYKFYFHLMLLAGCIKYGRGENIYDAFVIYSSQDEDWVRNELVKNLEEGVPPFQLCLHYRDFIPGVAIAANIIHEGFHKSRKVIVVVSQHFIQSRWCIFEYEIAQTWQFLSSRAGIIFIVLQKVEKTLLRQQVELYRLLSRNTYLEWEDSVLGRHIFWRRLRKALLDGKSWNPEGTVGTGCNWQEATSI
T1 sequence (Q9Y6Y9 17-160 limits assumed): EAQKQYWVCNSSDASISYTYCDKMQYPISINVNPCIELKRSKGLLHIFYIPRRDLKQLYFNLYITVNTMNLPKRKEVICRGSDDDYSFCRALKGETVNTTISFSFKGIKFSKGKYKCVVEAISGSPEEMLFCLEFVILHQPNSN
Description: To assess interference with lipopolysaccharide (LPS) binding, VB-201 or VB-703 were incubated for 20 min with cells (10^6/ml) after which 100 ng/ml of biotin-LPS (InvivoGen) was added for an additional 15 minutes, all at 4° C. Cells were washed, resuspended in FACS buffer and analyzed on a FACS-Calibur device.

[4] = test system: PGN (TLR2)-induced signaling in human monocytes (THP-1 cell line); assay: PGN (TLR2)-induced signaling, western blot; assay type: cell-based; details: 20 min pretreatment, 20 μg/ml PGN for 15 minutes
Description: The monocytic THP-1 cell line was purchased from the American Type Tissue Culture Collection (ATCC Cat. No. TIB-202). Cells (10^6/ml) were pretreated for 20 min with VB-201 or VB-701 at the doses indicated in FIG. 3, or with solvent, followed by activation with 20 μg/ml peptidoglycan (PGN) (InvivoGen, San Diego, Calif.) for 15 minutes, or were untreated (“Unt”). Cells were washed and resuspended in lysis buffer containing 1:100 dithiothreitol (DTT), phosphatase and protease inhibitors (Thermo Scientific). Samples were loaded onto a precast Criterion TGX gel (Bio-Rad, Hemel Hempstead, UK) and transferred onto nitrocellulose membrane. Blots were blocked with 5% milk or BSA in Tris buffered saline and Tween 20 (TBST) for 1 h, followed by incubation with primary and secondary antibodies. Membranes were developed using an ECL kit (Thermo Scientific). The following antibodies were used for immunoblotting:
Primary antibodies: p-p38 (Cat. No. 4511; 1:1000) and p-IKK (Cat. No. 2697; 1:1000) were from Cell Signaling Technology (Danvers, Mass., USA). p-ERK1/2 (Cat. No. M8159; 1:10000) was purchased from Sigma (Israel). αTubulin served as a loading control.
as §3

LPS-biotin binding to human monocytes (primary CD14+) ([3]; biotin-LPS 100 ng/ml, FACS)	IC50 of LPS binding, fold lower than that of VB-201 ([3]; compared with VB-201) [fold]	IC50 ([3]; biotin-LPS 100 ng/ml, 4° C., human primary monocytes) [µM]	Structure (SMILES)	formation of p-IKK, p-ERK and p-p38 induced by LPS ([1]; western blot)	efficacy in inhibiting TLR4-driven protein phosphorylation, fold higher than VB-201 ([1]; compared with VB-201) [fold]	IL-6 secretion [2]	IL-12p40 secretion [2]	formation of p-IKK, p-ERK and p-p38 induced by PGN [4]	formation of p-ERK and p-AKT induced by LPS ([1]; western blot, LPS activation)
inhibit	> 10	–	CCCCCCCCCCC(CCCCCCCC)COC[C@H](COP(=O)([O-])OCC[n+]1ccccc1)OCCCCC(=O)O (stereo partly drawn) [VB-703, (R)-1-(2′-octyl)dodecyl-2-(4′-carboxy)butyl-sn-glycero-3-phosphoric acid pyridiniumethyl ester]	inhibited	≥ 10	inhibit	inhibit	inhibit	–
–	–	~12	CCCCCCCCCCCCCCCCOCC(COP(=O)([O-])OCC[N+](C)(C)C)OCCCCC(=O)O (stereo not shown) [VB-201, 1-hexadecyl-2-(4′-carboxy)butyl-glycero-3-phosphocholine, reference compound]	inhibit	–	inhibit	inhibit	inhibit	inhibit
